The values below come from US11691962B2 (eXIthera Pharmaceuticals, Inc., priority 2018, dated 2023).

A short description of series [1]: Plasma protein binding by equilibrium dialysis. The note with it: pH 7.4, pooled human plasma, 4 hours at 37° C., read-out: PPB (%). The series is classed as in vitro ADME. Here is the method: The following procedure was used to determine the plasma protein binding of a test compound in pooled plasma from human (mixed gender) via equilibrium dialysis in a 96-well plate format. The dialysate compartment was loaded with phosphate-buffered saline (pH 7.4) and the sample side was loaded with plasma spiked with the test compound at a concentration of 10 μM. After loading, samples were covered and incubated for 4 hours at 37° C. After incubation, each compartment was sampled, diluted with acetonitrile/buffer and centrifuged. The supernatants were analyzed by HPLC-MS/MS. The analyte peak areas obtained from HPLC-MS/MS analysis of each sample were used to calculate protein binding according to the following equation (Equation 4):
[formula] where: AREAp=Peak area of analyte in protein matrix; AREAb=Peak area of analyte in buffer.
The amount measured in the plasma compartment included both free and bound drug, while that on the buffer side represented free drug only; the differences were used to calculate the percentage plasma protein bound. Three reference compounds were tested in each assay: acebutolol, quinidine and warfarin.
(In general: In equilibrium dialysis only unbound substance equilibrates across the membrane.)

Series [2] in a line: Metabolic stability in dog hepatocytes. The series is classed as in vitro ADME. The note with it: pooled cryopreserved hepatocytes; beagle dog hepatocytes, 2 μM compound; read-out: Dog Hepatocyte Stability (t1/2). The method, then: The following procedure was used to determine the stability of test compounds in beagle dog hepatocytes in a 96-well plate format. The test compounds, including the controls, imipramine and 7-ethoxycoumarin, were dissolved at 10 mM in DMSO, followed by further 5-fold dilution with DMSO to 2 mM. Pooled cryopreserved beagle dog hepatocytes were thawed and transferred into complete medium. Cells were gently centrifuged (700 rpm for 5 min) and the pellet rinsed with KHB (Krebs Henseleit buffer). Cells were resuspended, counted using Trypan blue, and adjusted to 1 million cells/mL in KHB buffer. The 2 mM compound stock solutions were diluted 10-fold with acetonitrile, followed by a further 50-fold dilution with KHB buffer. 200 μL of these compound solutions were transferred to 96-well polypropylene assay plates and an equal volume of the hepatocyte solution was added and mixed to initiate the reaction (final assay concentrations were 2 μM compound and 500,000 cells/mL). Assay plates were incubated at 37° C. in 5% CO2 with gentle agitation. 50 μL aliquots were removed at multiple time points out to 180 minutes and quenched with 6 volumes of cold acetonitrile (containing 250 ng/mL of carbutamide and chrysin as internal standards) to terminate the reaction and precipitate protein. Quenched samples were maintained on ice. The quenched samples were centrifuged at 2000×g (3100 rpm) for 10 minutes at 4° C. 50 μL aliquots of the supernatants were removed and diluted with 100 μL Milli-Q water to reduce the % organic content prior to bioanalysis by LC-MS/MS. Peak areas corresponding to the test compound were recorded. The compound remaining was calculated by comparing the peak area at each time point to time zero. Data were analyzed and results were calculated using Microsoft Excel 2010.

Another series deals with Factor XIa (Homo sapiens (Human), UniProt P03951). In words: Factor XIa enzyme inhibition assay (dose response, fluorogenic AMC substrate). It counts as biochemical. The note with it: read-out: hFXIa IC50. In outline: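 Fluorogenic progress curves (30 min, 1-min reads, 30° C) were recorded for 0.25 nM FXIa cleaving 50 μM Glp-Pro-Arg-AMC in Hepes pH 7.4 buffer with NaCl and Tween 20. Compounds were serially two-fold diluted, and IC50 was fitted with a Hill equation.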

Like-named read-outs stand apart in the source and are kept apart here.

Sequence of Factor XIa (P03951 388-625): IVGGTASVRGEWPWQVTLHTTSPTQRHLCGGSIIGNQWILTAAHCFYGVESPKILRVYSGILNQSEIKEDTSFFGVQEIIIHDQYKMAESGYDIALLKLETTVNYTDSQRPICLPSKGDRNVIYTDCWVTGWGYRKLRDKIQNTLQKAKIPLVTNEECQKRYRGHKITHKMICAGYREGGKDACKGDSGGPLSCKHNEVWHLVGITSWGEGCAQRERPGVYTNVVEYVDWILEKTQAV
Sequence of Factor XIa (P03951 19-387 partner): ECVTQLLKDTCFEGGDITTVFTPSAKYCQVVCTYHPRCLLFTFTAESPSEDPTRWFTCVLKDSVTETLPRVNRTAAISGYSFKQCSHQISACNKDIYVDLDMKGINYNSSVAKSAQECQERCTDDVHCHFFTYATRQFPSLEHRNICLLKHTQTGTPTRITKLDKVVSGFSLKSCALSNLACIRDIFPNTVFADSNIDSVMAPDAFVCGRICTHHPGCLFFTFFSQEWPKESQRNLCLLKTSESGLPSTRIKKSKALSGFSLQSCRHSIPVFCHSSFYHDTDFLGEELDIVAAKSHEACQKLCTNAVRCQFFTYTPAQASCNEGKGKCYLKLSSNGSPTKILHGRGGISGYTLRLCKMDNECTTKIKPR

What is called IC50 is the midpoint of a concentration-inhibition curve. As to `CC[C@@H](NC(=O)N1C(=O)[C@H](Cc2ccnc(N)c2)[C@H]1C(=O)N(C)c1ccn(C)n1)C1CCCCC1` [Compound 1-47, (2S,3R)-3-((2-aminopyridin-4-yl)methyl)-N2-(1-methyl-1H-pyrazol-3-yl)-N1-((R)-1-cyclohexylpropyl)-N2-methyl-4-oxoazetidine-1,2-dicarboxamide], the fraction unbound at 4 h, 10 μM in series [1] (both sexes) was in the range of 0.05 to 0.09. Moreover, in series [2], the half-life at 2 μM fell in the range of 1.02 to 2 h. In addition, the IC50 on Factor XIa was less than 10 nM.

Turning to `C[C@@H](NC(=O)N1C(=O)[C@H](Cc2ccnc(N)c2)[C@H]1C(=O)N(C)c1ccn(C)n1)C1CCCCC1` [Compound 1-50, (2S,3R)-3-((2-aminopyridin-4-yl)methyl)-N2-(1-methyl-1H-pyrazol-3-yl)-N1-((R)-1-cyclohexylethyl)-N2-methyl-4-oxoazetidine-1,2-dicarboxamide], the fraction unbound at 4 h, 10 μM in series [1] (both sexes) lay within 0.1 to 0.5. Further, in series [2], the half-life at 2 μM is 1.02 to 2 h. The IC50 on Factor XIa fell in the range of 10 to 100 nM.

For the compound `CC[C@@H](NC(=O)N1C(=O)[C@H](Cc2cc(C)nc(N)c2)[C@H]1C(=O)N(C)c1nccn1C)c1ccccc1` [Compound 1-51, (2S,3R)-3-((2-amino-6-methylpyridin-4-yl)methyl)-N2-(1-methyl-1H-imidazol-2-yl)-N1-((R)-1-phenylpropyl)-N2-methyl-4-oxoazetidine-1,2-dicarboxamide], the fraction unbound at 4 h, 10 μM in series [1] (both sexes) lay in the range of 0.1 to 0.5. The half-life at 2 μM in series [2] was more than 4 h. For the same compound, the IC50 at Factor XIa is less than 10 nM.

Consider `CC[C@@H](NC(=O)N1C(=O)[C@H](Cc2ccnc(N)c2)[C@H]1C(=O)N(C)c1nccn1C)C1CCCCC1` [Compound 1-55, (2S,3R)-3-((2-aminopyridin-4-yl)methyl)-N2-(1-methyl-1H-imidazol-2-yl)-N1-((R)-1-cyclohexylpropyl)-N2-methyl-4-oxoazetidine-1,2-dicarboxamide], for which, in series [1] (both sexes), the fraction unbound at 4 h, 10 μM lay within 0.1 to 0.5. In addition, the half-life at 2 μM in series [2] lay within 1.02 to 2 h. For the same compound, at Factor XIa, the half-inhibitory concentration (IC50) is less than 10 nM.

Take `CC(C)[C@@H](NC(=O)N1C(=O)[C@H](Cc2ccnc(N)c2)[C@H]1C(=O)N(C)c1ccn(C)n1)C1CCCCC1` [Compound 1-57, (2S,3R)-3-((2-aminopyridin-4-yl)methyl)-N2-(1-methyl-1H-pyrazol-3-yl)-N1-((R)-1-cyclohexyl-2-methylpropyl)-N2-methyl-4-oxoazetidine-1,2-dicarboxamide]: the fraction unbound at 4 h, 10 μM in series [1] (both sexes) was less than 0.05. Also, the half-life at 2 μM in series [2] was less than 1 h. Also, the IC50 at Factor XIa was 10 to 100 nM.

Turning to `CN(C(=O)[C@@H]1[C@@H](Cc2ccnc(N)c2)C(=O)N1C(=O)N[C@@H](C1CCCCC1)C1CC1)c1ccn(C)n1` [Compound 1-58, (2S,3R)-3-((2-aminopyridin-4-yl)methyl)-N2-(1-methyl-1H-pyrazol-3-yl)-N1-((R)-cyclohexyl-cyclopropylmethyl)-N2-methyl-4-oxoazetidine-1,2-dicarboxamide], the fraction unbound at 4 h, 10 μM in series [1] (both sexes) was in the range of 0.05 to 0.09. Further, in series [2], the half-life at 2 μM is less than 1 h. Moreover, the IC50 on Factor XIa is less than 10 nM.

On to `CC[C@@H](NC(=O)N1C(=O)[C@H](Cc2cc(C)nc(NC)c2)[C@H]1C(=O)N(C)c1ccnn1C)C1CCCCC1` [Compound 1-62, (2S,3R)-3-((2-methylamino-6-methylpyridin-4-yl)methyl)-N2-(1-methyl-1H-pyrazol-5-yl)-N1-((R)-1-cyclohexylpropyl)-N2-methyl-4-oxoazetidine-1,2-dicarboxamide], for which the fraction unbound at 4 h, 10 μM in series [1] (both sexes) was in the range of 0.1 to 0.5. Besides, the half-life at 2 μM in series [2] is less than 1 h. For the same compound, at Factor XIa, the IC50 was 10 to 100 nM.

Regarding `CC[C@@H](NC(=O)N1C(=O)[C@H](Cc2ccnc(N)c2)[C@H]1C(=O)N(C)c1ccnn1C)C1CCCCC1` [Compound 1-63, (2S,3R)-3-((2-aminopyridin-4-yl)methyl)-N2-(1-methyl-1H-pyrazol-5-yl)-N1-((R)-1-cyclohexylpropyl)-N2-methyl-4-oxoazetidine-1,2-dicarboxamide], the fraction unbound at 4 h, 10 μM in series [1] (both sexes) lay in the range of 0.1 to 0.5. Besides, the half-life at 2 μM in series [2] was less than 1 h. Moreover, the IC50 at Factor XIa is less than 10 nM.

Consider `CC[C@@H](NC(=O)N1C(=O)[C@H](Cc2cc(C)nc(N)c2)[C@H]1C(=O)N(C)c1ccnn1C)C1CCCCC1` [Compound 1-67, (2S,3R)-3-((2-amino-6-methylpyridin-4-yl)methyl)-N2-(1-methyl-1H-pyrazol-5-yl)-N1-((R)-1-cyclohexylpropyl)-N2-methyl-4-oxoazetidine-1,2-dicarboxamide], for which the fraction unbound at 4 h, 10 μM in series [1] (both sexes) was in the range of 0.1 to 0.5. Also, the half-life at 2 μM in series [2] fell in the range of 1.02 to 2 h. Moreover, at Factor XIa, the IC50 was 10 to 100 nM.

For `CC[C@@H](NC(=O)N1C(=O)[C@H](Cc2ccnc(N)c2)[C@H]1C(=O)N(C)c1nccn1C)c1cccc(C)c1` [Compound 1-80, (2S,3R)-3-((2-aminopyridin-4-yl)methyl)-N2-(1-methyl-1H-imidazol-2-yl)-N1-((R)-1-(3-methylphenyl)propyl)-N2-methyl-4-oxoazetidine-1,2-dicarboxamide], the fraction unbound at 4 h, 10 μM in series [1] (both sexes) is 0.1 to 0.5. Also, the half-life at 2 μM in series [2] fell in the range of 2.02 to 4 h. The IC50 on Factor XIa is less than 10 nM.

With `CC[C@@H](NC(=O)N1C(=O)[C@H](Cc2ccnc(N)c2)[C@H]1C(=O)N(C)c1nccn1C)c1ccc(C)nc1` [Compound 1-81, (2S,3R)-3-((2-aminopyridin-4-yl)methyl)-N2-(1-methyl-1H-imidazol-2-yl)-N1-((R)-1-(6-methylpyridin-3-yl)propyl)-N2-methyl-4-oxoazetidine-1,2-dicarboxamide], the fraction unbound at 4 h, 10 μM in series [1] (both sexes) is less than 0.5. In addition, the half-life at 2 μM in series [2] fell in the range of 2.02 to 4 h. For the same compound, the IC50 at Factor XIa lay within 10 to 100 nM.

On to `CC[C@@H](NC(=O)N1C(=O)[C@H](Cc2ccnc(N)c2)[C@H]1C(=O)N(C)c1nccn1C)c1ccccc1Cl` [Compound 1-83], for which, in series [1] (both), the fraction unbound at 4 h, 10 μM is 0.05 to 0.09. Also, the half-life at 2 μM in series [2] is 2.02 to 4 h. In addition, the IC50 on Factor XIa lay within 10 to 100 nM.

`CC[C@@H](NC(=O)N1C(=O)[C@H](Cc2ccnc(N)c2)[C@H]1C(=O)N(C)c1cnn(C)c1)c1ccccc1` [Compound 1-88, (2S,3R)-3-((2-aminopyridin-4-yl)methyl)-N2-(1-methyl-1H-pyrazol-4-yl)-N1-((R)-1-phenylpropyl)-N2-methyl-4-oxoazetidine-1,2-dicarboxamide]: the fraction unbound at 4 h, 10 μM in series [1] (both sexes) lay in the range of 0.1 to 0.5. Besides, the half-life at 2 μM in series [2] was more than 4 h. Also, on Factor XIa, the IC50 is less than 10 nM.

For the compound `CC[C@@H](NC(=O)N1C(=O)[C@H](Cc2cc(C)nc(N)c2)[C@H]1C(=O)N(C)c1ccn(C)n1)c1cccc(Cl)c1` [Compound 1-89, (2S,3R)-3-((2-amino-6-methylpyridin-4-yl)methyl)-N2-(1-methyl-1H-pyrazol-3-yl)-N1-((R)-1-(3-chlorophenyl)propyl)-N2-methyl-4-oxoazetidine-1,2-dicarboxamide], the fraction unbound at 4 h, 10 μM in series [1] (both sexes) was 0.1 to 0.5. For the same compound, the half-life at 2 μM in series [2] was more than 4 h. For the same compound, the IC50 on Factor XIa is less than 10 nM.

As to `CC[C@@H](NC(=O)N1C(=O)[C@H](Cc2ccnc(N)c2)[C@H]1C(=O)N(C)c1cn(C)cn1)c1ccccc1` [Compound 1-90, (2S,3R)-3-((2-aminopyridin-4-yl)methyl)-N2-(1-methyl-1H-imidazol-4-yl)-N1-((R)-1-phenylpropyl)-N2-methyl-4-oxoazetidine-1,2-dicarboxamide], in series [1] (both sexes), the fraction unbound at 4 h, 10 μM was in the range of 0.1 to 0.5. Further, the half-life at 2 μM in series [2] lay in the range of 2.02 to 4 h. Moreover, the IC50 at Factor XIa is less than 10 nM.
